From PMC9127501 (Frontiers in Microbiology, 2022)
“And” between values parts separate entries of the source, which are not always exact repeats. Identical values can stand only once. Like-named read-outs stand apart in the source and are kept apart here.

How the values were obtained:
in vitro [1] = conditions: human
HCoV-229E [2] = experiment: MTT-based antiviral assay (protection from virus-induced CPE) in HCoV-229E-infected MRC-5 cells; type: cell-based, Human Coronavirus strain 229E; conditions: for maximum antiviral effect: MRC-5, maximum over concentrations tested; for % Antiviral Activity (Range) / EC50: HCoV-229E-infected MRC-5, 6 days; for % Antiviral Activity (Range): range over the assay conc. range of each compound; for EC50: MRC5, 144 h, no unit in head (assay conc. and CC50 columns in µM)
recombinant SCoV-2 PLpro = recombinant SCoV-2 PLpro (Severe acute respiratory syndrome coronavirus 2, UniProt P0DTD1); experiment: SCoV-2 PLpro inhibition assay (peptide-AMC fluorescence); type: biochemical, SARS-CoV-2; conditions: 60 μM peptide-AMC, 37°C, 45 min
HCoV-229E [3] = experiment: qRT-PCR viral load in supernatants of HCoV-229E-infected MRC-5 cells; type: cell-based, Human Coronavirus strain 229E
SCoV-2 [4] = test system: SCoV-2; set-up: method as in Meyer et al., [2020]; conditions: at clinically relevant concentrations; ref Meyer et al., [2020]; cited from earlier work
PLpro = conditions: reported value, reference not printed at the place; cited from earlier work
SCoV-2 [5] = experiment: Immunofluorescence antiviral screening assay (SCoV-2 nucleocapsid staining) in Vero E6 cells; type: cell-based, SARS-CoV-2
Procedure: The antiviral activity of the selected compound against SCoV-2 was analysed by immunofluorescent assay in a 96-well plate. For this, ~10^4 Vero E6 cells per well were seeded and grown to ≥80% confluency. At this stage, cells in replicate wells were treated with a safe dose (identified from the cytotoxicity studies) of the selected compound or with 10μM Remdesivir. These assays also included the necessary negative controls for comparison. The cells were infected with SCoV-2 at 0.1 MOI and, post-30 h incubation, fixed in 4% paraformaldehyde, permeabilized with 0.3% Tween-20 and stained with anti-mouse mAb specific to SCoV-2 Nucleocapsid (primary) followed by staining with Alexafluor 568-labelled anti-mouse antibody (secondary). Prior to mounting, monolayers were treated with Hoechst 33342 to stain the nuclei and the images were captured using ImageXpress Micro Confocal (Molecular devices) at 10 × magnification (16 images/well). The data was analysed in MetaXpress software using a multi-wavelength cell scoring module and the cells double-positive for the viral nucleocapsid as well as nuclei were counted and compared with that in the controls.

Vero E6 cells = experiment: Cytotoxicity assay in Vero E6 cells (Hoechst 33342 / Sytox orange imaging); conditions: for cytotoxicity: Vero E6
[6] = as above; conditions: African green monkey
in vitro [7] = conditions: African green monkey, % Cell Viability, Vero E6, 30 h
[8] = MRC-5 cells (human lung fibroblasts), uninfected
[9] = MRC-5, across the tested concentrations
[10] = HCoV-229E-infected MRC-5, 6 days, range over the assay conc. range

In the case of `C[C@H]1O[C@H](O[C@H]2[C@H](O)[C@@H](O)[C@@H](O[C@H]3[C@H](O)[C@@H](O)C(O)O[C@@H]3CO)O[C@@H]2CO)[C@H](O)[C@@H](O)[C@@H]1N[C@H]1C=C(CO)[C@@H](O)[C@H](O)[C@H]1O` (stereo partly shown) [Acarbose], the CC50 at 6 days (in vitro [1]) is reported as greater than 7750 µM, the cytotoxicity at 6 days (in vitro [1]) is reported as -15 to 7% and the maximum antiviral effect (HCoV-229E [2]; HCoV-229E) is reported as “about 8%”. The “% Antiviral Activity (Range)” value (HCoV-229E [2]) was “+0.3 to +7.2%”, the EC50 (HCoV-229E [2]; Human coronavirus 229E) was greater than 7750 µM and the maximum cytotoxicity (MRC-5 cells; human) was less than 15%. The IC50 (recombinant SCoV-2 PLpro; IC50, 100 nM PLpro) was 2000 ± 280 µM.
Work on `CC(C)CN(C[C@@H](O)[C@H](Cc1ccccc1)NC(=O)O[C@H]1CO[C@H]2OCC[C@H]21)S(=O)(=O)c1ccc(N)cc1` [Darunavir] yielded a cytotoxicity (in vitro [1]) of -14.4 to 97.2%, a viability (in vitro [1]) of 44.5% and an IC50 (recombinant SCoV-2 PLpro; 100 nM PLpro, read-out: IC50) of 1320 ± 200 µM. The “% Reduction in Viral Load (Range)” value (HCoV-229E [3]) was 0.0 to +97.6%, the “Log10 Reduction in Viral Load (Range)” value (HCoV-229E [3]) was 0.0 to +1.62 Log10 and the “log10 inhibition / reduction in viral load” value (HCoV-229E [3]) was 1.42 log10. For the same compound, the “reduction in viral titers” value (HCoV-229E [3]) was “about 96%” and the “activity against SCoV-2 (in words)” value (SCoV-2 [4]) was “completely ineffective”.
For `Cc1cc2nc3c(=O)[nH]c(=O)nc-3n(C[C@H](O)[C@H](O)[C@H](O)COP(=O)(O)OP(=O)(O)OC[C@H]3O[C@@H](n4cnc5c(N)ncnc54)[C@H](O)[C@@H]3O)c2cc1C` [FAD, Flavin adenine dinucleotide], the CC50 at 6 days (in vitro [1]; [8]) was greater than 1200 µM, the cytotoxicity at 6 days (in vitro [1]; [8]) was -10.5 to 12.7% and the maximum antiviral effect (HCoV-229E [2]; HCoV-229E) was “about 8%”. For the same compound, the “% Antiviral Activity (Range)” value (HCoV-229E [2]) was -1.3 to +8.1%, the EC50 (HCoV-229E [2]; Human coronavirus 229E) was greater than 1200 µM and the maximum cytotoxicity (MRC-5 cells; [9]) was less than 15%. The IC50 (recombinant SCoV-2 PLpro; IC50, 100 nM PLpro) was ~127 µM and 127 µM.
In the case of `NC(=O)c1nc(F)c[nH]c1=O` [Favipiravir], the CC50 at 6 days (in vitro [1]) is reported as 665 µM, the cytotoxicity at 6 days (in vitro [1]) is reported as -8.1 to 67.5% and the “protection from virus-induced CPE” value (HCoV-229E [2]; 250 μM, HCoV-229E, MRC-5) is reported as “failed to show any obvious protection”. The “% Antiviral Activity (Range)” value (HCoV-229E [2]) was -0.6 to +26.9%, the inhibition at 500 µM (HCoV-229E [2]; Human coronavirus 229E, MRC5, 500 μM, HCoV-229E, MRC-5, read-out: cells in which virus-induced CPE was inhibited) was roughly 17% and the “% Reduction in Viral Load (Range)” value (HCoV-229E [3]; [10]) was 0.0 to +81.6%. The “Log10 Reduction in Viral Load (Range)” value (HCoV-229E [3]; [10]) was “+0.74 to 0.0 Log10”.
In the case of `Cc1ccc(N)cc1C(=O)N[C@H](C)c1cccc2ccccc12` [GRL0617, (R)-5-amino-2-methyl-N-(1-(naphthalen-1-yl)ethyl) benzamide], the IC50 (PLpro) is given as […], the CC50 at 6 days (in vitro [1]) is given as 137 µM and the cytotoxicity at 6 days (in vitro [1]) is given as 6.2 to 76%. The “% Antiviral Activity (Range)” value (HCoV-229E [2]) was -1.9 to +33.7%, the “% Reduction in Viral Load (Range)” value (HCoV-229E [3]; [10]) was “Inconsistent” and the “Log10 Reduction in Viral Load (Range)” value (HCoV-229E [3]; [10]) was “Inconsistent”.
With `OC[C@@H](O)[C@@H](O[C@@H]1O[C@H](CO)[C@H](O)[C@H](O)[C@H]1O)[C@H](O)[C@@H](O)CO` [Lactitol] the CC50 at 6 days (in vitro [1]; [8]) was greater than 2900 µM, the cytotoxicity at 6 days (in vitro [1]; [8]) was -8.9 to 1.8% and the maximum antiviral effect (HCoV-229E [2]; HCoV-229E) was “about 8%”. For the same compound, the “% Antiviral Activity (Range)” value (HCoV-229E [2]) was -1.2 to +5.3%, the EC50 (HCoV-229E [2]; Human coronavirus 229E) was greater than 2900 µM and the maximum cytotoxicity (MRC-5 cells; [9]) was less than 15%. For the same compound, the IC50 (recombinant SCoV-2 PLpro; IC50, 100 nM PLpro) was 8800 ± 500 µM.
With `Cc1cccc(C)c1OCC(=O)N[C@@H](Cc1ccccc1)[C@@H](O)C[C@H](Cc1ccccc1)NC(=O)[C@H](C(C)C)N1CCCNC1=O` [Lopinavir] the CC50 at 6 days (in vitro [1]) was 67 µM, the cytotoxicity at 6 days (in vitro [1]) was -9.6 to 99.9% and the “Selectivity Index (CC50/EC50)” value (HCoV-229E [2]; HCoV-229E, MRC-5) was 2.03. For the same compound, the “% Antiviral Activity (Range)” value (HCoV-229E [2]) was -6.3 to +72.4%, the EC50 (HCoV-229E [2]; Human coronavirus 229E) was 33 µM and the IC50 (recombinant SCoV-2 PLpro; IC50, 100 nM PLpro) was 1000 ± 100 µM. The “log10 inhibition / reduction in viral load” value (HCoV-229E [3]; 40 μM, HCoV-229E, MRC-5) was ~ 1.4 log10 and 1.42 log10, the “reduction in viral titers” value (HCoV-229E [3]; 40 μM, HCoV-229E, MRC-5) was “about 96%” and the “% Reduction in Viral Load (Range)” value (HCoV-229E [3]; [10]) was “+96.2 to +29.1%”. The “Log10 Reduction in Viral Load (Range)” value (HCoV-229E [3]; [10]) was “+1.42 to +0.15 Log10”.
For `OC(c1cc(C(F)(F)F)nc2c(C(F)(F)F)cccc12)C1CCCCN1` (stereo not shown) [Mefloquine], the CC50 at 6 days (in vitro [1]; [8]) was 173 µM, the cytotoxicity at 6 days (in vitro [1]; [8]) was 11.5 to 93.2% and the “protection from virus-induced CPE” value (HCoV-229E [2]; 120 μM, HCoV-229E, MRC-5) was ~ 62% and ~ 60%. The “% Antiviral Activity (Range)” value (HCoV-229E [2]) was -0.4 to +60.6%, the EC50 (HCoV-229E [2]; Human coronavirus 229E) was 108 µM and the IC50 (recombinant SCoV-2 PLpro; IC50, 100 nM PLpro) was ~459 µM and 459 µM. For the same compound, the “log10 inhibition of viral titers” value (HCoV-229E [3]; 120 μM, HCoV-229E, MRC-5) was roughly 0.8 log10, the “reduction in viral titers” value (HCoV-229E [3]; 120 μM, HCoV-229E, MRC-5) was 84.7% and the “% Reduction in Viral Load (Range)” value (HCoV-229E [3]; [10]) was “+84.7 to +38.4%”. For the same compound, the “Log10 Reduction in Viral Load (Range)” value (HCoV-229E [3]; [10]) was “+0.81 to +0.21 Log10”, the “% Inhibition (SCoV-2 N-positive cells)” value (SCoV-2 [5]; 0.5 µM (500 nM), SCoV-2-infected Vero E6, 30 h, 0.5 µM) was 30% and 30.6% and the inhibition at 0.5 µM (SCoV-2 [5]; Severe acute respiratory syndrome coronavirus 2, Vero C1008, 30 h, read-out: % Inhibition (SCoV-2 N-positive cells), 0.5 µM (500 nM), SCoV-2-infected Vero E6, 30 h) was roughly 31%. The cytotoxicity (Vero E6 cells; 0.5 μM) was 7%, the cytotoxicity (Vero E6 cells; 5 μM) was “about 45%” and the viability at 30 h, 0.5 µM [6] was 93.2%. For the same compound, the viability at 30 h, 5 µM [6] was 45.6%.
With `CCC(CC)COC(=O)[C@H](C)N[P@](=O)(OC[C@H]1O[C@@](C#N)(c2ccc3c(N)ncnn23)[C@H](O)[C@@H]1O)Oc1ccccc1` [Remdesivir] the viability at 10 µM (in vitro [7]) was greater than 99%, the “% Inhibition (SCoV-2 N-positive cells)” value (SCoV-2 [5]; 10 µM, SCoV-2-infected Vero E6, 30 h) was 99.2% and the “cells protected from SCoV-2-induced CPE” value (SCoV-2 [5]; 10 μM, Vero E6) was greater than 99%. The inhibition at 10 µM (SCoV-2 [5]; Severe acute respiratory syndrome coronavirus 2, Vero C1008, 30 h, 10 µM, SCoV-2-infected Vero E6, 30 h, read-out: % Inhibition (SCoV-2 N-positive cells)) was greater than 99% and the “% Cell Viability” value (Vero E6 cells; 10 µM, Vero E6, 30 h) was 99.23%.
With `CC(C)c1nc(CN(C)C(=O)N[C@H](C(=O)N[C@@H](Cc2ccccc2)C[C@H](O)[C@H](Cc2ccccc2)NC(=O)OCc2cncs2)C(C)C)cs1` [Ritonavir] the cytotoxicity at 6 days (in vitro [1]; [8]) was 20.6 to 100%, the “protection from virus-induced CPE” value (HCoV-229E [2]; 70 μM, HCoV-229E, MRC-5) was “about 35%” and the “% Antiviral Activity (Range)” value (HCoV-229E [2]) was -3.8 to +36.4%. The “log10 inhibition / reduction in viral load” value (HCoV-229E [3]; 70 μM, HCoV-229E, MRC-5) was roughly 0.6 log10, the “reduction in viral titers” value (HCoV-229E [3]; 70 μM, HCoV-229E, MRC-5) was 73.3% and the “% Reduction in Viral Load (Range)” value (HCoV-229E [3]; [10]) was “+73.3 to -625.5%”. The “Log10 Reduction in Viral Load (Range)” value (HCoV-229E [3]; [10]) was “+0.57 to -0.86 Log10”.
With `C[C@@H]1O[C@@H](OC[C@H]2O[C@@H](Oc3c(-c4ccc(O)c(O)c4)oc4cc(O)cc(O)c4c3=O)[C@H](O)[C@@H](O)[C@@H]2O)[C@H](O)[C@H](O)[C@H]1O` [Rutin] the CC50 (in vitro [1]) was 351 µM, the cytotoxicity (in vitro [1]) was -5.9 to 89.5% and the “virus-infected cells protected from virus-induced CPE” value (HCoV-229E [2]; HCoV-229E, MRC-5, concentration not stated at the place) was “about 37%”. The “% Antiviral Activity (Range)” value (HCoV-229E [2]) was -1.1 to +37.1%, the “log10 inhibition / reduction in viral titers” value (HCoV-229E [3]) was roughly 0.2 log10 and the “reduction in viral titers” value (HCoV-229E [3]) was 38.44%. The “% Reduction in Viral Load (Range)” value (HCoV-229E [3]; [10]) was “+38.4 to -455.4%” and the “Log10 Reduction in Viral Load (Range)” value (HCoV-229E [3]; [10]) was “+0.21 to -0.74 Log10”.
